{"source": "paper PMC10004634", "about": "(PLOS ONE, 2023)", "tested_on": "U-2932 cells", "experiment": "SILAC phosphoproteomic analysis", "protocol": "For differential SILAC encoding, both cells were grown in arginine- and lysine-deficient culture medium containing light (Arg0/Lys0) or heavy (Arg10/Lys8) isotopic forms of L-arginine and L-lysine (SILAC medium). […] For mass spectrometric analysis, phosphopeptide-enriched samples were loaded onto a reversed phase analytical column, resolved by an acetonitrile gradient using a nanoflow HPLC system and directly electrosprayed via a nanoelectrospray ion source into an LTQ-Orbitrap Velos mass spectrometer (Thermo Fisher Scientific). […] A false discovery rate (FDR) of 0.01 was selected for protein and peptide identification, and a posterior error probability of ≤0.1 for each peptide-to-spectral match was required. The resulting list of phosphosites exported from the MaxQuant software was filtered for class-I sites (only serine, threonine, or tyrosine assignments with a localization probability of ≥0.75) [33] and used for all subsequent biostatistical analysis. […] Gaussian regression analysis on the histogram plot of these log2-transformed ratios was performed using Sigmaplot (version 10.0; Systat Software Inc.). The obtained values for the mean and standard deviation across the whole quantitative dataset were used to determine thresholds for significant regulation of at least ±2.5 σ. […] Furthermore, only phosphosites conforming to this criterion and showing consistent regulation in both biological replicates were considered as regulated.", "data": [{"smiles": "CC#CC(=O)N1CC[C@@H](n2c(=O)n(-c3ccc(Oc4ccccc4)cc3)c3c(N)ncnc32)C1", "note": "[Tirabrutinib]", "values": [{"measurement": "Tirabrutinib/ctrl. rep. 1", "setting": "PRKCB T641", "result": 1.02}, {"measurement": "Tirabrutinib/ctrl. rep. 2", "setting": "PRKCB T641", "result": 1.00}, {"measurement": "Tirabrutinib/ctrl. rep. 1", "setting": "PRKD2 S189", "result": 0.90}, {"measurement": "Tirabrutinib/ctrl. rep. 2", "setting": "PRKD2 S189", "result": 0.70}, {"measurement": "Tirabrutinib/ctrl. rep. 1", "setting": "PRKD2 S206", "result": 0.86}, {"measurement": "Tirabrutinib/ctrl. rep. 2", "setting": "PRKD2 S206", "result": 0.83}, {"measurement": "Tirabrutinib/ctrl. rep. 1", "setting": "PRKD2 S375", "result": 0.91}, {"measurement": "Tirabrutinib/ctrl. rep. 2", "setting": "PRKD2 S375", "result": 0.81}, {"measurement": "Tirabrutinib/ctrl. rep. 1", "setting": "PRKD2 S706", "result": 0.77}, {"measurement": "Tirabrutinib/ctrl. rep. 2", "setting": "PRKD2 S706", "result": 0.50}, {"measurement": "Tirabrutinib/ctrl. rep. 1", "setting": "PRKD2 S710", "result": 0.90}, {"measurement": "Tirabrutinib/ctrl. rep. 2", "setting": "PRKD2 S710", "result": 0.77}, {"measurement": "Tirabrutinib/ctrl. rep. 2", "setting": "PRKD3 S6", "result": 0.88}, {"measurement": "Tirabrutinib/ctrl. rep. 2", "setting": "PRKD3 S27", "result": 0.99}, {"measurement": "Tirabrutinib/ctrl. rep. 1", "setting": "PRKD3 S30", "result": 0.97}, {"measurement": "Tirabrutinib/ctrl. rep. 1", "setting": "PRKD3 S31", "result": 0.99}, {"measurement": "Tirabrutinib/ctrl. rep. 2", "setting": "PRKD3 S31", "result": 0.97}, {"measurement": "Tirabrutinib/ctrl. rep. 1", "setting": "PRKD3 S44", "result": 1.09}, {"measurement": "Tirabrutinib/ctrl. rep. 2", "setting": "PRKD3 S44", "result": 1.04}, {"measurement": "Tirabrutinib/ctrl. rep. 1", "setting": "PRKD3 S213", "result": 1.29}, {"measurement": "Tirabrutinib/ctrl. rep. 2", "setting": "PRKD3 S213", "result": 1.25}, {"measurement": "Tirabrutinib/ctrl. rep. 2", "setting": "PRKD3 S364", "result": 1.20}, {"measurement": "Tirabrutinib/ctrl. rep. 1", "setting": "PRKD3 S376", "result": 0.80}, {"measurement": "Tirabrutinib/ctrl. rep. 2", "setting": "PRKD3 S376", "result": 0.94}, {"measurement": "Tirabrutinib/ctrl. rep. 1", "setting": "PRKD3 S391", "result": 0.99}, {"measurement": "Tirabrutinib/ctrl. rep. 2", "setting": "PRKD3 S391", "result": 0.97}, {"measurement": "Tirabrutinib/ctrl. rep. 2", "setting": "PRKD3 S543", "result": 1.05}, {"measurement": "Tirabrutinib/ctrl. rep. 1", "setting": "PRKD3 S731", "result": 0.72}, {"measurement": "Tirabrutinib/ctrl. rep. 2", "setting": "PRKD3 S731", "result": 0.48}, {"measurement": "Tirabrutinib/ctrl. rep. 1", "setting": "PRKD3 S735", "result": 0.85}, {"measurement": "Tirabrutinib/ctrl. rep. 2", "setting": "PRKD3 S735", "result": 0.77}, {"measurement": "Tirabrutinib/ctrl. rep. 1", "setting": "RAF1 S12", "result": 1.45}, {"measurement": "Tirabrutinib/ctrl. rep. 2", "setting": "RAF1 S12", "result": 0.88}, {"measurement": "Tirabrutinib/ctrl. rep. 2", "setting": "RAF1 S316", "result": 0.94}, {"measurement": "Tirabrutinib/ctrl. rep. 1", "setting": "RAF1 S377", "result": 0.98}, {"measurement": "Tirabrutinib/ctrl. rep. 2", "setting": "RAF1 S377", "result": 1.08}, {"measurement": "Tirabrutinib/ctrl. rep. 1", "setting": "RAF1 S641", "result": 1.04}, {"measurement": "Tirabrutinib/ctrl. rep. 2", "setting": "RAF1 S641", "result": 0.98}, {"measurement": "Tirabrutinib/ctrl. rep. 2", "setting": "RAF1 T661", "result": 0.73}, {"measurement": "Tirabrutinib/ctrl. rep. 1", "setting": "RELA S238", "result": 1.26}, {"measurement": "Tirabrutinib/ctrl. rep. 2", "setting": "RELA S238", "result": 0.86}, {"measurement": "Tirabrutinib/ctrl. rep. 1", "setting": "RPS6KA1 S230", "result": 0.99}, {"measurement": "Tirabrutinib/ctrl. rep. 2", "setting": "RPS6KA1 S230", "result": 0.99}, {"measurement": "Tirabrutinib/ctrl. rep. 1", "setting": "RPS6KA1 S389", "result": 1.55}, {"measurement": "Tirabrutinib/ctrl. rep. 2", "setting": "RPS6KA1 S389", "result": 1.00}, {"measurement": "Tirabrutinib/ctrl. rep. 1", "setting": "RPS6KA1 S741", "result": 1.16}, {"measurement": "Tirabrutinib/ctrl. rep. 2", "setting": "RPS6KA1 S741", "result": 0.87}, {"measurement": "Tirabrutinib/ctrl. rep. 1", "setting": "TSC2 S1132", "result": 1.15}, {"measurement": "Tirabrutinib/ctrl. rep. 2", "setting": "TSC2 S1132", "result": 0.89}, {"measurement": "Tirabrutinib/ctrl. rep. 1", "setting": "TSC2 S1254", "result": 0.44}, {"measurement": "Tirabrutinib/ctrl. rep. 2", "setting": "TSC2 S1254", "result": 0.70}, {"measurement": "Tirabrutinib/ctrl. rep. 1", "setting": "TSC2 S1336", "result": 1.59}, {"measurement": "Tirabrutinib/ctrl. rep. 2", "setting": "TSC2 S1336", "result": 1.33}, {"measurement": "Tirabrutinib/ctrl. rep. 1", "setting": "TSC2 S1346", "result": 1.14}, {"measurement": "Tirabrutinib/ctrl. rep. 2", "setting": "TSC2 S1346", "result": 1.02}, {"measurement": "Tirabrutinib/ctrl. rep. 1", "setting": "TSC2 S1364", "result": 0.82}, {"measurement": "Tirabrutinib/ctrl. rep. 2", "setting": "TSC2 S1364", "result": 0.98}, {"measurement": "Tirabrutinib/ctrl. rep. 1", "setting": "TSC2 S1385", "result": 1.01}, {"measurement": "Tirabrutinib/ctrl. rep. 2", "setting": "TSC2 S1385", "result": 1.30}, {"measurement": "Tirabrutinib/ctrl. rep. 1", "setting": "TSC2 S1411", "result": 0.93}, {"measurement": "Tirabrutinib/ctrl. rep. 2", "setting": "TSC2 S1411", "result": 0.98}, {"measurement": "Tirabrutinib/ctrl. rep. 2", "setting": "TSC2 S1420", "result": 0.93}, {"measurement": "Tirabrutinib/ctrl. rep. 2", "setting": "TSC2 S1448", "result": 1.43}, {"measurement": "Tirabrutinib/ctrl. rep. 1", "setting": "TSC2 S1449", "result": 1.16}, {"measurement": "Tirabrutinib/ctrl. rep. 1", "setting": "TSC2 S1452", "result": 1.16}, {"measurement": "Tirabrutinib/ctrl. rep. 2", "setting": "TSC2 S1452", "result": 1.04}, {"measurement": "Tirabrutinib/ctrl. rep. 1", "setting": "TSC2 S1798", "result": 0.76}, {"measurement": "Tirabrutinib/ctrl. rep. 2", "setting": "TSC2 S1798", "result": 0.73}, {"measurement": "Tirabrutinib/ctrl. rep. 2", "setting": "YBX1 S2", "result": 0.99}, {"measurement": "Tirabrutinib/ctrl. rep. 2", "setting": "YBX1 S3", "result": 0.99}, {"measurement": "Tirabrutinib/ctrl. rep. 1", "setting": "YBX1 S165", "result": 0.98}, {"measurement": "Tirabrutinib/ctrl. rep. 2", "setting": "YBX1 S165", "result": 0.91}, {"measurement": "Tirabrutinib/ctrl. rep. 1", "setting": "YBX1 S167", "result": 0.91}, {"measurement": "Tirabrutinib/ctrl. rep. 2", "setting": "YBX1 S167", "result": 1.13}]}]}
